± gives the expanded uncertainty stated by the source.
Conditions: 298.15 K, 101.33 kPa, Liquid; for viscosity: Capillary tube (Ostwald / Ubbelohde) method

SMILES | mass density [kg/m3] | viscosity [mPa·s] | mass density (Vibrating tube method) [kg/m3]
CCO [ethanol] | 785.46 ± 0.47 | 1.082 ± 0.009 | 
CCOS(=O)(=O)[O-].CCn1cc[n+](C)c1 [1-ethyl-3-methylimidazolium ethyl sulfate] |  | 97.58 ± 4 | 1237.63 ± 8.3
